Results on 17 molecules are retold here after patent US4863925A, “Cyclohexanedione derivative for hepatic disorders and a process for producing the same” (Nihon Nohyaku Co., Ltd., priority 1986, dated 1989).

The subject of series [1] is hepatic disorder caused by carbon tetrachloride. The experiment in a line: Effect of suppressing hepatic disorder caused by carbon tetrachloride (Test Example 1). The format is in vivo, mice (dd-strain, male). On the set-up: key to Liver injury index: 0 = healthy, 2 = slight, 4 = evident injury, 6 = serious injury. To be noted: 30 mg/kg p.o., 6 h before CCl4 0.05 ml/kg p.o., 24 h after CCl4, mean of five mice; for Liver injury index: 0 healthy, 2 slightly affected, 4 evidently observed injury, 6 serious injury; for P-GPT (plasma glutamic pyruvic transaminase activity): Reitman-Frankel, 2,000 or higher calculated as 2,000. On the procedure: Effect of suppressing hepatic disorder caused by carbon tetrachloride. […] The animals were sacrificed 24 hours after the administration of carbon tetrachloride, and the extent of liver injury was examined. On the other hand, blood was collected from the animal at the time of the sacrifice, and centrifuged to obtain plasma. The plasma glutamic pyruvic transminase (GPT) activity was determined according to the method of Reitman-Frankel. The activity was expressed in terms of Karmen Units (K.U.). The conditions of the liver were expressed in terms of liver injury index as follows. |Liver injury index | Condition of liver |0 Healthy liver |2 Slightly affected |4 Evidently observed injury |6 Serious injury Mice were used in groups of five of test were represented by the mean value. When the GPT activity was 2,000 units or higher, or further determination was made, the activity was calculated as 2,000 units for reasons of convenience.

Series [2] in a line: acute oral toxicity (LD50). The conditions noted are these: in vivo, male rat. Here is the method: For example, LD50 value (acute oral toxicity to male rat) of the compound No. 55 is more than 1,000 mg/kg.

For orientation: LD50 means the dose at which mortality reaches 50%. Consider `COc1ccc(C2CC(=O)C(=C3SC4C(S3)N(C)CCN4C)C(=O)C2)cc1` (centres unmarked) [compound 55], for which, in series [1], the Liver injury index amounted to 0.3 and the “P-GPT (plasma glutamic pyruvic transaminase activity)” value (“P-GPT” for short) is 107 K.U. This molecule gave an LD50 in series [2] greater than 1000 mg/kg.

Consider `CN1CCN(C)C2SC(=C3C(=O)CC(c4cccs4)CC3=O)SC21` (centres unmarked) [compound 82, 2-[2,5-dimethyl-2,5-diaza-7,9-dithiabicyclo-(4.3.0)-nonane-8-ylidene]-5-(2-thienyl)-1,3-cyclo hexanedione], for which, in series [1], the Liver injury index came to 0.3 and the “P-GPT” value was 16 K.U.

Regarding `CN1CCN(C)C2(C)SC(=C3C(=O)CC(c4ccco4)CC3=O)SC12` (centres unmarked) [compound 90], in series [1], the Liver injury index came out at 0 and the “P-GPT” value is listed as 15 K.U.

Take `COc1ccc(C2CC(=O)C(=C3SC4NCCNC4(C)S3)C(=O)C2)cc1` (centres unmarked) [compound 92]: in series [1], the Liver injury index is 0.4 and the “P-GPT” value was 15 K.U.

On to `CCOC(=O)C1C(=O)C(=C2SC3C(S2)N(C)CCN3C)C(=O)CC1c1ccc(C)cc1` (centres unmarked) [compound 102], for which, in series [1], the Liver injury index is reported as 1.5 and the “P-GPT” value is 319 K.U.

Regarding `CCOC(=O)C1C(=O)C(=C2SC3C(S2)N(C)CCN3C)C(=O)CC1c1ccc(OC)cc1` (centres unmarked) [compound 103], in series [1], the Liver injury index was 1.0 and the “P-GPT” value is given as 18 K.U.

Regarding `CCOC(=O)C1C(=O)C(=C2SC3C(S2)N(C)CCN3C)C(=O)CC1c1ccccc1Cl` (centres unmarked) [compound 104], in series [1], the Liver injury index is given as 1.7 and the “P-GPT” value was 345 K.U.

As for `CN1CCN(C)C2(C)SC(=C3C(=O)CC(c4cccs4)CC3=O)SC12` (centres unmarked) [compound 105], in series [1], the Liver injury index was found to be 0 and the “P-GPT” value was 15 K.U.

In the case of `C=CCN1CCN(CC=C)C2(C)SC(=C3C(=O)CC(C)(C)CC3=O)SC12` (centres unmarked) [compound 106], in series [1], the Liver injury index was found to be 1.2 and the “P-GPT” value is given as 242 K.U.

Regarding `CN1CCNC2SC(=C3C(=O)CC(c4ccco4)CC3=O)SC21` (centres unmarked) [compound 108], in series [1], the Liver injury index is 1.0 and the “P-GPT” value is given as 24 K.U.

`CN1CCNC2SC(=C3C(=O)CC(c4cccs4)CC3=O)SC21` (centres unmarked) [compound 109]: in series [1], the Liver injury index was determined as 0 and the “P-GPT” value is 17 K.U.

On to `CC1(C)CC(=O)C(=C2SC3NCCNC3(C)S2)C(=O)C1` (centres unmarked) [compound 111], for which, in series [1], the Liver injury index was determined as 1.0 and the “P-GPT” value is 14 K.U.

On to `CCCN1CCN(CCC)C2SC(=C3C(=O)CC(c4ccccc4)C(C(=O)OCC)C3=O)SC21` (centres unmarked) [compound 114], for which, in series [1], the Liver injury index came out at 2.2 and the “P-GPT” value was 26 K.U.

Regarding `CCOC(=O)C1C(=O)C(=C2SC3C(S2)N(C)CCN3C)C(=O)CC1c1ccc(OCC)cc1` (centres unmarked) [compound 115], in series [1], the Liver injury index is reported as 0 and the “P-GPT” value was 39 K.U.

On to `CN1CCNC2SC(=C3C(=O)CC(C)(C)CC3=O)SC21.Cl.Cl` (centres unmarked) [compound 118, 2-[2-methyl-2,5-diaza-7,9-dithiabicyclo-(4,3,0)-nonane-8-ylidene]-5,5-dimethyl-1,3-cyclohexanedione dihydrochloride salt], for which, in series [1], the Liver injury index came to 0 and the “P-GPT” value is 32 K.U.

As to `CN1CCNC2SC(=C3C(=O)CC(c4ccccc4Cl)CC3=O)SC21` (centres unmarked) [compound 121], in series [1], the Liver injury index came out at 0 and the “P-GPT” value is on record as 20 K.U.

As to `COc1ccc(C2CC(=O)C(=C3SC4C(S3)N(C)CCN4C)C(=O)C2)cc1` (centres unmarked) [compound 122], in series [1], the Liver injury index turned out to be 1.5 and the “P-GPT” value is reported as 231 K.U.
